Experimental data from ChEMBL document CHEMBL1201862, “PubChem BioAssay data set” (2004).
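Where inhibition never reached the appropriate level, the endpoint shown equals the highest concentration tested. Otherwise, values were interpolated linearly from a five-concentration, 48-hour dose response in 96-well plates. The concentration for 50% growth inhibition is given as GI50.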 Calls of active or inactive are those of the source. Cut-off read from the data, not from the text of the source: active = GI50 up to about 1.1 µM and inactive = higher.

Tests used:
Test in all cases: inhibition of tumour cell growth, NCI panel, 48 h
A549 = system: A549
BT-549 = system: BT-549
CCRF-CEM = system: CCRF-CEM
EKVX = system: EKVX
HCT-116 = system: HCT-116
HCT-15 = system: HCT-15
HL-60 = system: HL-60
MCF7 = system: MCF7
MDA-MB-435 = system: MDA-MB-435
Malme-3M = system: Malme-3M
NCI/ADR-RES = system: NCI/ADR-RES
OVCAR-8 = system: OVCAR-8
RPMI-8226 = system: RPMI-8226
SF-539 = system: SF-539
SK-MEL-28 = system: SK-MEL-28
SK-MEL-2 = system: SK-MEL-2
SK-OV-3 = system: SK-OV-3
SW-620 = system: SW-620
HCC 2998 = system: HCC 2998

Measured: GI50

O=C(O)c1ccc(/C=N/N=C2c3ccccc3-c3ccccc32)cc1
57.1 µM: HCT-15
inactive: A549 74 µM | BT-549 > 100 µM | CCRF-CEM 44.1 µM | EKVX > 100 µM | HCT-116 > 100 µM | HL-60 32.9 µM | MCF7 33.2 µM | MDA-MB-435 73.5 µM | Malme-3M 29 µM | NCI/ADR-RES > 100 µM | OVCAR-8 49.8 µM | RPMI-8226 63.7 µM | SF-539 31 µM | SK-MEL-28 62.4 µM | SK-MEL-2 27.4 µM | SK-OV-3 74.3 µM | SW-620 36.1 µM

COc1ccc2nc3c(C)cc4ccccc4n3c2c1
56.5 µM: HCT-15
inactive: A549 41.1 µM | BT-549 > 100 µM | CCRF-CEM 47.6 µM | EKVX 19.2 µM | HCC 2998 > 100 µM | HCT-116 41.6 µM | HL-60 > 100 µM | MCF7 51.5 µM | MDA-MB-435 > 100 µM | Malme-3M > 100 µM | NCI/ADR-RES > 100 µM | OVCAR-8 72.1 µM | RPMI-8226 55.1 µM | SF-539 86.9 µM | SK-MEL-28 > 100 µM | SK-OV-3 > 100 µM | SW-620 73.6 µM

O=C1C2=C(SCCS2)C(=O)c2c(Sc3ccc(Cl)cc3)c(Sc3ccc(Cl)cc3)c(Sc3ccc(Cl)cc3)c(Sc3ccc(Cl)cc3)c21
> 100 µM: HCT-15
inactive: A549 > 100 µM | BT-549 > 100 µM | CCRF-CEM 11.6 µM | EKVX > 100 µM | HCC 2998 > 100 µM | HCT-116 > 100 µM | MCF7 > 100 µM | MDA-MB-435 > 100 µM | Malme-3M 20.2 µM | NCI/ADR-RES > 100 µM | OVCAR-8 > 100 µM | RPMI-8226 51.3 µM | SK-MEL-2 41.9 µM | SK-OV-3 94.6 µM | SW-620 > 100 µM

CN1C(=O)C(C#N)C2C[C@@]1(C)Oc1ccccc12 (some centres undefined)
> 100 µM: HCT-15
inactive: A549 > 100 µM | BT-549 64.9 µM | CCRF-CEM > 100 µM | EKVX > 100 µM | HCC 2998 > 100 µM | HCT-116 > 100 µM | HL-60 > 100 µM | MCF7 > 100 µM | MDA-MB-435 > 100 µM | NCI/ADR-RES > 100 µM | OVCAR-8 > 100 µM | RPMI-8226 > 100 µM | SK-MEL-28 > 100 µM | SK-MEL-2 > 100 µM | SK-OV-3 > 100 µM | SW-620 > 100 µM

O=c1cc(/C=C/c2ccc(O)c(O)c2)oc(/C=C/c2ccc(O)c(O)c2)c1
inactive: A549 13.4 µM | BT-549 4.8 µM | CCRF-CEM 1.24 µM | EKVX 6.53 µM | HCC 2998 2.49 µM | HCT-116 4.53 µM | MCF7 3.29 µM | MDA-MB-435 1.43 µM | Malme-3M 5.06 µM | NCI/ADR-RES 26.1 µM | OVCAR-8 4.4 µM | RPMI-8226 6.58 µM | SF-539 2.75 µM | SK-MEL-28 11.9 µM | SK-MEL-2 2.65 µM | SK-OV-3 9.02 µM | SW-620 4.83 µM
5.68 µM: HCT-15

C=C(C)[C@H]1C=C[C@@H](OC(=O)c2cccnc2)[C@@]23CO[C@@](C)([C@H](OC(=O)c4cccnc4)[C@@]4(OC(C)=O)C[C@H](C)[C@H](OCCC)[C@@H]4[C@H]2OC(C)=O)[C@H]13
inactive: BT-549 > 15 µM | CCRF-CEM 2.84 µM | EKVX > 15 µM | HCC 2998 > 15 µM | HCT-116 > 15 µM | HL-60 3.35 µM | MCF7 > 15 µM | MDA-MB-435 9.68 µM | NCI/ADR-RES > 15 µM | OVCAR-8 > 15 µM | RPMI-8226 9.95 µM | SF-539 > 15 µM | SK-MEL-2 > 15 µM | SK-OV-3 > 15 µM | SW-620 > 15 µM
> 15 µM: HCT-15

N=C(N)N/N=C/c1c(-c2ccc(N)cc2)nc2sccn12
inactive: A549 21.2 µM | BT-549 35.5 µM | CCRF-CEM 26.8 µM | EKVX 24.7 µM | HCT-116 23.3 µM | HL-60 16.2 µM | MCF7 31.6 µM | MDA-MB-435 26.5 µM | Malme-3M 61 µM | NCI/ADR-RES > 100 µM | OVCAR-8 34.5 µM | RPMI-8226 30.8 µM | SF-539 26.9 µM | SK-MEL-28 > 100 µM | SK-MEL-2 30.5 µM | SK-OV-3 24.8 µM | SW-620 22.8 µM
36.9 µM: HCT-15

N#Cc1c(N)c2c(c(-c3ccccc3)c1-c1ccccc1)C(=O)N(NC(=S)Nc1ccccc1)C2=O
71.8 µM: HCT-15
inactive: A549 64.1 µM | BT-549 89.5 µM | CCRF-CEM 51.8 µM | EKVX > 100 µM | HCC 2998 > 100 µM | HCT-116 56.1 µM | HL-60 37.9 µM | MCF7 60.3 µM | MDA-MB-435 > 100 µM | Malme-3M > 100 µM | NCI/ADR-RES 59.3 µM | OVCAR-8 88.7 µM | RPMI-8226 16.7 µM | SF-539 89.9 µM | SK-MEL-28 47.2 µM | SK-MEL-2 > 100 µM | SW-620 > 100 µM
